Results as given in PubChem BioAssay AID2060912 (Molecular Pharmacology Branch, DTP, NCI, 2025).

Tested on: HUVEC/MSC spheroids viability
Experiment: Human HUVEC/MSC cell line growth inhibition [KRAS2];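 as to viability, T/C: percent of DMSO vehicle control luminescence so 100% = untreated viability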
Conditions: for IC50: curve of first compound; for viability, T/C: stronger effect = lower value
From the text: Multicellular complex tumor spheroid response to RAS pathway inhibitors in combination with a targeted agents in patient-derived cell lines with oncogenic KRAS variants from multiple cancer types
A high-throughput screen of multi-cell type tumor spheroids was designed to identify active combinations of targeted small molecules and KRAS pathway inhibitors. Complex spheroids include a stromal component modeled by human endothelial cells (HUVEC) and fibroblasts modeled by human mesenchymal stem cells (MSCs). The concentration ranges selected for each drug and investigational agent were based upon clinically achievable concentrations if the clinical Cmax of the agent was known. * [This particular assayID is a followup dataset requested by reviewers of the manuscript. It is a test of the HUVEC and MSC without the tumor cells, and was conducted using different drug plates and a different plate layout.]
Compounds. The drugs and investigational agents: BI-3406 (NSC825286), BAY-293 (NSC824723), batoprotafib (TNO155; NSC825523), sotorasib (AMG 510; NSC818433), MRTX1257 (NSC819558), elimusertib (BAY 1895344; NSC800525), molibresib (GSK525762; NSC774829), temuterkib (LY3214996; NSC803410), venetoclax (NSC766270), alisertib (NSC759677), olaparib (NSC753686), talazoparib (NSC767125), erdafitinib (NSC781556), ipatasertib (NSC767898), cabozantinib (NSC761068), nintedanib (NSC756659), abemaciclib (NSC768073), docetaxel (NSC628503), trametinib (NSC758246), and sapanisertib (NSC764658) were obtained from the National Cancer Institute (NCI) Developmental Therapeutics Program Chemical Repository. The FDA-approved anticancer drug set is available from the Developmental Therapeutics Program. […] The stock solutions were prepared in dimethyl sulfoxide (DMSO, Sigma-Aldrich, St. Louis, MO, cat. D2650) at 800-fold the tested concentration and stored at -70 degrees C prior to their use. All drugs and investigational agents were tested over a range starting from a high concentration at or near the clinical Cmax and decreasing in half-log increments. If the clinical Cmax for an agent had not been determined, the highest concentration tested was 10 microM.
Cell Culture. All cells were maintained in an incubator at 37 degrees C and 5% CO2 with 95% humidity. The PDC lines were cultured according to standard operating procedures established by the NCI PDMR (https://pdmr.cancer.gov/sops/default.htm). Briefly, all PDCs were thawed and cultured in Matrigel-coated flasks prepared with a working solution of 1X Ham's F-12 nutrient mix, without supplementation (Invitrogen, Waltham, MA, cat. 11765054), 100 U/mL penicillin-streptomycin (Invitrogen, cat. 15140122), and 2.5% Matrigel (Corning Inc., Corning, NY, cat. 354248) for the first three passages. All PDCs were cultured in complete DMEM/F-12 media containing advanced DMEM/F-12 (Invitrogen, cat. 12634028), 4.9% defined fetal bovine serum, heat inactivated (HyClone Laboratories Inc., Logan, UT, cat. SH30070.03HI), 389 ng/mL hydrocortisone (Sigma-Aldrich, cat. H4001), 9.7 ng/mL human EGF recombinant protein (Invitrogen, cat. PHG0313), 23.4 microg/mL adenine (Sigma-Aldrich, cat. A2786), 97.3 U/mL penicillin-streptomycin (Invitrogen, cat. 15140122), 1.9 mM L-glutamine (Invitrogen, cat. 25030081), and 9.7 microM Y-27632 dihydrochloride (Tocris Bioscience, Bristol, United Kingdom, cat. 1254). The PDCs were cultured in complete DMEM/F12 media without 9.7 microM Y-27632 dihydrochloride for at least two passages prior to the screen. The established cell line HOP-62 was cultured in RPMI 1640 medium, HEPES (Invitrogen, cat. 22400105) with 10% defined fetal bovine serum (HyClone Laboratories Inc., cat. SH30070.03) and 2 mM L-glutamine (Invitrogen, cat. 25030081). The pooled donor HUVEC were cultured in endothelial cell growth medium 2 (PromoCell, Heidelberg, Germany, cat. C-22011) and the hMSC were cultured in mesenchymal stem cell growth medium 2 (PromoCell, cat. C-28009). […]

CC(=O)OC12COC1CC(O)C1(C)C(=O)C(O)C3=C(C)C(OC(=O)C(O)C(NC(=O)OC(C)(C)C)c4ccccc4)CC(O)(C(OC(=O)c4ccccc4)C21)C3(C)C (centres undefined) + C=CC(=O)N1CCN(c2nc(=O)n(-c3c(C)ccnc3C(C)C)c3nc(-c4c(O)cccc4F)c(F)cc23)C(C)C1 gave an IC50 (second compound 0.0316 µM) greater than 3000 nM, an IC50 (second compound 0.1 µM) greater than 3000 nM and an IC50 (second compound 0.316 µM) greater than 3000 nM. The IC50 (second compound 1 µM) was greater than 3000 nM, the IC50 (second compound 3.16 µM) was greater than 3000 nM and the IC50 (second compound 10 µM) was greater than 3000 nM. It also gave a viability, T/C (second compound 0.0316 µM, first compound 0.00949 µM) of 57.6%, a viability, T/C (second compound 0.0316 µM, first compound 0.03 µM) of 67.8% and a viability, T/C (second compound 0.0316 µM, first compound 0.0949 µM) of 47.2%. For the same compound, the viability, T/C (second compound 0.0316 µM, first compound 0.3 µM) was 41.4%, the viability, T/C (second compound 0.0316 µM, first compound 0.949 µM) was 63% and the viability, T/C (second compound 0.0316 µM, first compound 3 µM) was 55.2%. It also gave a viability, T/C (second compound 0.1 µM, first compound 0.00949 µM) of 65.5%, a viability, T/C (second compound 0.1 µM, first compound 0.03 µM) of 52.8% and a viability, T/C (second compound 0.1 µM, first compound 0.0949 µM) of 57.4%. It also gave a viability, T/C (second compound 0.1 µM, first compound 0.3 µM) of 54.1%, a viability, T/C (second compound 0.1 µM, first compound 0.949 µM) of 57.3% and a viability, T/C (second compound 0.1 µM, first compound 3 µM) of 63.7%. For the same compound, the viability, T/C (second compound 0.316 µM, first compound 0.00949 µM) was 54.5%, the viability, T/C (second compound 0.316 µM, first compound 0.03 µM) was 58.9% and the viability, T/C (second compound 0.316 µM, first compound 0.0949 µM) was 61.6%. It also gave a viability, T/C (second compound 0.316 µM, first compound 0.3 µM) of 57.5%, a viability, T/C (second compound 0.316 µM, first compound 0.949 µM) of 65% and a viability, T/C (second compound 0.316 µM, first compound 3 µM) of 70.3%. The viability, T/C (second compound 1 µM, first compound 0.00949 µM) was 57.1%, the viability, T/C (second compound 1 µM, first compound 0.03 µM) was 61.4% and the viability, T/C (second compound 1 µM, first compound 0.0949 µM) was 59.2%. For the same compound, the viability, T/C (second compound 1 µM, first compound 0.3 µM) was 59.8%, the viability, T/C (second compound 1 µM, first compound 0.949 µM) was 62.9% and the viability, T/C (second compound 1 µM, first compound 3 µM) was 67.9%. For the same compound, the viability, T/C (second compound 3.16 µM, first compound 0.00949 µM) was 66%, the viability, T/C (second compound 3.16 µM, first compound 0.03 µM) was 82.4% and the viability, T/C (second compound 3.16 µM, first compound 0.0949 µM) was 64.8%. For the same compound, the viability, T/C (second compound 3.16 µM, first compound 0.3 µM) was 84.4%, the viability, T/C (second compound 3.16 µM, first compound 0.949 µM) was 83.4% and the viability, T/C (second compound 3.16 µM, first compound 3 µM) was 101%. The viability, T/C (second compound 10 µM, first compound 0.00949 µM) was 100%, the viability, T/C (second compound 10 µM, first compound 0.03 µM) was 113% and the viability, T/C (second compound 10 µM, first compound 0.0949 µM) was 122%. The viability, T/C (second compound 10 µM, first compound 0.3 µM) was 113%, the viability, T/C (second compound 10 µM, first compound 0.949 µM) was 111% and the viability, T/C (second compound 10 µM, first compound 3 µM) was 124%.
In the case of CN(C)C/C=C/C(=O)Nc1cc2c(Nc3ccc(F)c(Cl)c3)ncnc2cc1O[C@H]1CCOC1 + C=CC(=O)N1CCN(c2nc(=O)n(-c3c(C)ccnc3C(C)C)c3nc(-c4c(O)cccc4F)c(F)cc23)C(C)C1, the IC50 (second compound 0.0316 µM) is reported as greater than 100 nM, the IC50 (second compound 0.1 µM) is reported as greater than 100 nM and the IC50 (second compound 0.316 µM) is reported as greater than 100 nM. The IC50 (second compound 1 µM) was greater than 100 nM, the IC50 (second compound 3.16 µM) was greater than 100 nM and the IC50 (second compound 10 µM) was greater than 100 nM. The viability, T/C (second compound 0.0316 µM, first compound 0.000316 µM) was 98.4%, the viability, T/C (second compound 0.0316 µM, first compound 0.001 µM) was 115% and the viability, T/C (second compound 0.0316 µM, first compound 0.00316 µM) was 97%. For the same compound, the viability, T/C (second compound 0.0316 µM, first compound 0.01 µM) was 84.3%, the viability, T/C (second compound 0.0316 µM, first compound 0.0316 µM) was 91.4% and the viability, T/C (second compound 0.0316 µM, first compound 0.1 µM) was 88.9%. For the same compound, the viability, T/C (second compound 0.1 µM, first compound 0.000316 µM) was 116%, the viability, T/C (second compound 0.1 µM, first compound 0.001 µM) was 107% and the viability, T/C (second compound 0.1 µM, first compound 0.00316 µM) was 85.7%. It also gave a viability, T/C (second compound 0.1 µM, first compound 0.01 µM) of 80.1%, a viability, T/C (second compound 0.1 µM, first compound 0.0316 µM) of 111% and a viability, T/C (second compound 0.1 µM, first compound 0.1 µM) of 81%. It also gave a viability, T/C (second compound 0.316 µM, first compound 0.000316 µM) of 108%, a viability, T/C (second compound 0.316 µM, first compound 0.001 µM) of 109% and a viability, T/C (second compound 0.316 µM, first compound 0.00316 µM) of 87.3%. The viability, T/C (second compound 0.316 µM, first compound 0.01 µM) was 92.8%, the viability, T/C (second compound 0.316 µM, first compound 0.0316 µM) was 96.8% and the viability, T/C (second compound 0.316 µM, first compound 0.1 µM) was 100%. The viability, T/C (second compound 1 µM, first compound 0.000316 µM) was 107%, the viability, T/C (second compound 1 µM, first compound 0.001 µM) was 119% and the viability, T/C (second compound 1 µM, first compound 0.00316 µM) was 105%. It also gave a viability, T/C (second compound 1 µM, first compound 0.01 µM) of 124%, a viability, T/C (second compound 1 µM, first compound 0.0316 µM) of 112% and a viability, T/C (second compound 1 µM, first compound 0.1 µM) of 110%. The viability, T/C (second compound 3.16 µM, first compound 0.000316 µM) was 107%, the viability, T/C (second compound 3.16 µM, first compound 0.001 µM) was 129% and the viability, T/C (second compound 3.16 µM, first compound 0.00316 µM) was 114%. It also gave a viability, T/C (second compound 3.16 µM, first compound 0.01 µM) of 118%, a viability, T/C (second compound 3.16 µM, first compound 0.0316 µM) of 113% and a viability, T/C (second compound 3.16 µM, first compound 0.1 µM) of 131%. It also gave a viability, T/C (second compound 10 µM, first compound 0.000316 µM) of 128%, a viability, T/C (second compound 10 µM, first compound 0.001 µM) of 122% and a viability, T/C (second compound 10 µM, first compound 0.00316 µM) of 145%. For the same compound, the viability, T/C (second compound 10 µM, first compound 0.01 µM) was 97.3%, the viability, T/C (second compound 10 µM, first compound 0.0316 µM) was 124% and the viability, T/C (second compound 10 µM, first compound 0.1 µM) was 106%.
